According to ChEMBL document CHEMBL1150798, “Combined therapies in a murine model of blastoschizomycosis” (2007):
≈ marks a conversion by molar mass, not a printed value.

Key:
Assay type in all cases: functional
Magnusiomyces capitatus [1] = assay: Antimicrobial activity against Blastoschizomyces capitatus IHEM 16105 isolate by microdilution method
Magnusiomyces capitatus [2] = assay: Antimicrobial activity against Blastoschizomyces capitatus IHEM 5666 isolate by microdilution method
Magnusiomyces capitatus [3] = assay: Antimicrobial activity against Blastoschizomyces capitatus IHEM 16105 isolate infected OF1 mouse blastoschizomycosis model assessed as mean survival time at 40 mg/kg/day, po for 6 days administered 1 hr before microbial challenge
Magnusiomyces capitatus [4] = assay: Antimicrobial activity against Blastoschizomyces capitatus IHEM 5666 isolate infected OF1 mouse blastoschizomycosis model assessed as mean survival time at 40 mg/kg/day, po for 6 days administered 1 hr before microbial challenge
Magnusiomyces capitatus [5] = assay: Antimicrobial activity against Blastoschizomyces capitatus IHEM 16105 isolate infected OF1 mouse blastoschizomycosis model assessed as liver microbial count per gram of tissue at 40 mg/kg/day, po for 6 days administered 1 hr before microbial challenge
Magnusiomyces capitatus [6] = assay: Antimicrobial activity against Blastoschizomyces capitatus IHEM 16105 isolate infected OF1 mouse blastoschizomycosis model assessed as spleen microbial count per gram of tissue at 40 mg/kg/day, po for 6 days administered 1 hr before microbial challenge
Magnusiomyces capitatus [7] = assay: Antimicrobial activity against Blastoschizomyces capitatus IHEM 16105 isolate infected OF1 mouse blastoschizomycosis model assessed as kidney microbial count per gram of tissue at 40 mg/kg/day, po for 6 days administered 1 hr before microbial challenge
Magnusiomyces capitatus [8] = assay: Antimicrobial activity against Blastoschizomyces capitatus IHEM 5666 isolate infected OF1 mouse blastoschizomycosis model assessed as liver microbial count at 40 mg/kg/day, po for 6 days administered 1 hr before microbial challenge
Magnusiomyces capitatus [9] = assay: Antimicrobial activity against Blastoschizomyces capitatus IHEM 5666 isolate infected OF1 mouse blastoschizomycosis model assessed as spleen microbial count at 40 mg/kg/day, po for 6 days administered 1 hr before microbial challenge
Magnusiomyces capitatus [10] = assay: Antimicrobial activity against Blastoschizomyces capitatus IHEM 5666 isolate infected OF1 mouse blastoschizomycosis model assessed as kidney microbial count at 40 mg/kg/day, po for 6 days administered 1 hr before microbial challenge
Magnusiomyces capitatus [11] = assay: Antimicrobial activity against Blastoschizomyces capitatus IHEM 16105 isolate infected OF1 mouse blastoschizomycosis model assessed as mean survival time at 1 mg/kg/day, ip for 6 days administered 1 hr before microbial challenge; details: route intraperitoneal
Magnusiomyces capitatus [12] = assay: Antimicrobial activity against Blastoschizomyces capitatus IHEM 5666 isolate infected OF1 mouse blastoschizomycosis model assessed as mean survival time at 1 mg/kg/day, ip for 6 days administered 1 hr before microbial challenge; details: route intraperitoneal
Magnusiomyces capitatus [13] = assay: Antimicrobial activity against Blastoschizomyces capitatus IHEM 16105 isolate infected OF1 mouse blastoschizomycosis model assessed as liver microbial count per gram of tissue at 1 mg/kg/day, ip for 6 days administered 1 hr before microbial challenge; details: route intraperitoneal
Magnusiomyces capitatus [14] = assay: Antimicrobial activity against Blastoschizomyces capitatus IHEM 16105 isolate infected OF1 mouse blastoschizomycosis model assessed as spleen microbial count per gram of tissue at 1 mg/kg/day, ip for 6 days administered 1 hr before microbial challenge; details: route intraperitoneal
Magnusiomyces capitatus [15] = assay: Antimicrobial activity against Blastoschizomyces capitatus IHEM 16105 isolate infected OF1 mouse blastoschizomycosis model assessed as kidney microbial count per gram of tissue at 1 mg/kg/day, ip for 6 days administered 1 hr before microbial challenge; details: route intraperitoneal
Magnusiomyces capitatus [16] = assay: Antimicrobial activity against Blastoschizomyces capitatus IHEM 5666 isolate infected OF1 mouse blastoschizomycosis model assessed as liver microbial count at 1 mg/kg/day, ip for 6 days administered 1 hr before microbial challenge; details: route intraperitoneal
Magnusiomyces capitatus [17] = assay: Antimicrobial activity against Blastoschizomyces capitatus IHEM 5666 isolate infected OF1 mouse blastoschizomycosis model assessed as spleen microbial count at 1 mg/kg/day, ip for 6 days administered 1 hr before microbial challenge; details: route intraperitoneal
Magnusiomyces capitatus [18] = assay: Antimicrobial activity against Blastoschizomyces capitatus IHEM 5666 isolate infected OF1 mouse blastoschizomycosis model assessed as kidney microbial count at 1 mg/kg/day, ip for 6 days administered 1 hr before microbial challenge; details: route intraperitoneal

Row | SMILES | MIC (Magnusiomyces capitatus [1]) [µg/mL] | MIC (Magnusiomyces capitatus [2]) [µg/mL] | MST (Magnusiomyces capitatus [3]) [days] | MST (Magnusiomyces capitatus [4]) [days] | log10cfu (Magnusiomyces capitatus [5]) | log10cfu (Magnusiomyces capitatus [6]) | log10cfu (Magnusiomyces capitatus [7]) | log10cfu (Magnusiomyces capitatus [8]) | log10cfu (Magnusiomyces capitatus [9]) | log10cfu (Magnusiomyces capitatus [10]) | MST (Magnusiomyces capitatus [11]) [days] | MST (Magnusiomyces capitatus [12]) [days] | log10cfu (Magnusiomyces capitatus [13]) | log10cfu (Magnusiomyces capitatus [14]) | log10cfu (Magnusiomyces capitatus [15]) | log10cfu (Magnusiomyces capitatus [16]) | log10cfu (Magnusiomyces capitatus [17]) | log10cfu (Magnusiomyces capitatus [18])
1 | C[C@@H](c1ncncc1F)[C@](O)(Cn1cncn1)c1ccc(F)cc1F [VORICONAZOLE] | 1 (≈ 2.86 µM) | 0.25 (≈ 0.716 µM) | 15.78 | 17.1 | 4.33 | 5.56 | 6.98 | 5.63 | 4.75 | 6.78 | – | – | – | – | – | – | – | –
2 | C[C@@H]1[C@H](O)[C@@H](C)/C=C/C=C/C=C/C=C/C=C/C=C/C=C/[C@H](O[C@@H]2O[C@H](C)[C@@H](O)[C@H](N)[C@@H]2O)C[C@@H]2O[C@](O)(C[C@@H](O)C[C@@H](O)[C@H](O)CC[C@@H](O)C[C@@H](O)CC(=O)O[C@H]1C)C[C@H](O)[C@H]2C(=O)O [AMPHOTERICIN B] | – | 1 (≈ 1.08 µM) | – | – | – | – | – | – | – | – | 12.3 | 12.2 | 5.17 | 6.02 | 7 | 4.47 | 4.87 | 7.39
